Data on 2 compounds can be found in ChEMBL document CHEMBL4837238, “Feature-Based Molecular Networking for the Targeted Identification of Gq-Inhibiting FR900359 Derivatives” (J Nat Prod, 2021).

Starred links: 1 amine or outer side, 2 acyl side, 3 side chain; linkers in the order of their positions; H or OH if unused. Positions of bridges follow the written chain, without caps; N, C: chain ends. Non-standard residues stand in square brackets, D forms with d. Residues, ends and D or L forms follow the SMILES beside them. *: point of attachment. Leu(3R-OH,Nα-propionyl) = CCC(=O)N[C@H](C(=O)*)[C@H](O)C(C)C; X1 = CC(C)[C@@H](O[*:3])[C@H](N[*:1])C(=O)[*:2]; NMeT = CN[C@H](C(=O)O)[C@@H](C)O; dPhLac = O=C(O)[C@H](O)Cc1ccccc1; NMeA = CN[C@@H](C)C(=O)O; NMeDha = C=C(NC)C(=O)O

Test [1] concerns the target T1, Guanine nucleotide-binding protein G(q) subunit alpha (Homo sapiens, UniProt P50148).
T1 sequence (P50148 whole entry): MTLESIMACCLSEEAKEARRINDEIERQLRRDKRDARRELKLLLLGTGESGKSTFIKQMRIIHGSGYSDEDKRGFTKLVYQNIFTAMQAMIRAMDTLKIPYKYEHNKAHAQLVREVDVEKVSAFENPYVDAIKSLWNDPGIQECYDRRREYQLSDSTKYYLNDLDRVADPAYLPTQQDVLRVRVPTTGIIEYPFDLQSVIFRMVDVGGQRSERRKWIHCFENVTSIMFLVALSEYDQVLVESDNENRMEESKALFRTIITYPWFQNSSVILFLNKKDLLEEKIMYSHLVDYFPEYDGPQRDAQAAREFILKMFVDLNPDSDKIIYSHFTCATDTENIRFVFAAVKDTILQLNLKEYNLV
Briefly: Inhibition of wild type GNAQ (unknown origin) expressed in CRISPR/Cas9 engineered HEK293 cells. Type of test: cell-based.

The nature of test [2]: Displacement of [3H]-PSB15900 from human platelet membrane Gq incubated for 90 mins by scintillation counter method. Type of test: cell membranes.

On to `C=C1C(=O)N[C@@H](C)C(=O)N(C)[C@@H](C)C(=O)N[C@@H]([C@H](OC(=O)[C@@H](NC(C)=O)C(O)C(C)C)C(C)C)C(=O)N(C)/C(=C\C)C(=O)O[C@H](C(C)C)[C@H](NC(C)=O)C(=O)O[C@H](Cc2ccccc2)C(=O)N1C` (single isomer, unassigned), for which the IC50 in test [1] is 2750 nM. Moreover, the negative logarithm of the Ki (pKi) in test [2] is recorded as 7.5.
Compound `C=C1C(=O)N[C@@H](C)C(=O)N(C)[C@@H](C)C(=O)N[C@@H]([C@H](OC(=O)[C@@H](NC(=O)CC)[C@H](O)C(C)C)C(C)C)C(=O)N(C)[C@@H]([C@@H](C)OC)C(=O)O[C@H](C(C)C)[C@H](NC(C)=O)C(=O)O[C@H](Cc2ccccc2)C(=O)N1C` (Ac-[X1][dPhLac][NMeDha]A[NMeA][X1](Leu(3R-OH,Nα-propionyl))[NMeT](Me); ester 1-C) gave a pKi in test [2] of 8.66.

The term IC50 denotes the concentration that inhibits the measured activity by half. Read a low IC50 as inhibition by little substance. A word on the pKi: it is −log10 of the Ki, conventionally taken in molar units.
